# Results as given in publication PMC11181322, “Copper(II) Complexes with Isomeric Morpholine-Substituted 2-Formylpyridine Thiosemicarbazone Hybrids as Potential Anticancer Drugs Inhibiting Both Ribonucleotide Reductase and Tubulin Polymerization: The Morpholine Position Matters” (Journal of Medicinal Chemistry, 2024).
# System: MES-SA cells
# Assay: dNTP pools in MES-SA cell extracts
# Type: cell-based, human
# Conditions: at both concentrations (10 and 25 μM), 24 h
# Excerpt: RNR reduces NDPs to their corresponding deoxy derivatives (dNDPs), which are further converted into dNTPs.[77] Therefore, we investigated the effect of the most toxic proligand H2L^6 and its copper(II) complex 6 on cellular dNTP levels, using Triapine as a control. […] Triapine also elicits a dATP pool decrease while increasing the pools of the three other dNTP species. Decreasing the dATP pool to zero can give rise to the observed cytotoxic effect upon treatment with Triapine. Complex 6 seems to affect dNTP pools by a more complex mechanism, which is nevertheless consistent with R2 inhibition.[79]
# Figure 8 Measurement of dNTP pools in MES-SA cell extracts following a 24 h treatment with proligand H2L^6, complex 6, or Triapine at the indicated concentrations. Three independent experiments were performed; error bars represent standard error; stars indicate significant changes compared to the respective control (Ctrl) at p < 0.05.
# After a 24 h incubation with or without drugs, MES-SA cells were washed twice with PBS and trypsinized for 5 min. […] The pellet containing dNTPs was redissolved in 50 μL of RNase-free water and stored at −20 °C. dNTP-containing samples were measured by a nucleotide incorporation-based fluorescent method.[97] We used a long synthetic oligonucleotide (197 nt) as a template, which contains a dNTP-detection site, the sole complementary base to that of the dNTP to be quantified directly adjacent to the annealed primer. […] In addition to the limiting amount of dNTP to be quantified, the polymerization reaction mix contained the other three dNTPs in large excess. The double-stranded DNA product is detected by the EvaGreen Dye. The 2X master mix for the DNA synthesis reaction contained the following: 0.275 μM primer (Merck KGaA, Darmstadt, Germany), 0.25 μM template (IDT, Coralville, Iowa, USA), 50 μM dNTP mix (excluding the dNTP to be measured in the given experiment to limit its source to the sample), and 1.25 μM EvaGreen (Biotium). […] Fluorescence amplitude data were extracted from the Bio-Rad CFX Maestro Software and analyzed using Excel and Origin. […]
smiles,measurement,value
"Cc1cc(NC(=NN=Cc2cccc(CN3CCOCC3)n2)[S][Cu][Cl])cc(C)c1O [complex 6, [Cu(HL^6)Cl]·H2O]",dATP and dTTP levels,marked decrease
